Reference: patent US12042655B2, “Systems for detecting catheter movement” (Cardionomic, Inc., priority 2017, dated 2024)

System: normal, non-HF ovine model
Test: Change in right and left ventricle contractility after injection, with max(dP/dt) pressure as surrogate and heartbeat-by-heartbeat RV/LV correlation
Assay type: in vivo
Details: max(dP/dt) used as surrogate for contractility
Text: The correlation was a heartbeat-by-heartbeat analysis. Pressure measurements, taken by a Millar catheter comprising a MEMS pressure sensor, in units of max(dP/dt) was used as a surrogate for contractility. The first change, a dobutamine injection, provided a very high contractility increase greater than 500%. The average correlation between right ventricle contractility and left ventricle contractility was very good at 0.91, where 1.00 is a perfect correlation. Accordingly, if a subject is given a dobutamine injection, measuring changes to right ventricle contractility can provide accurate information about changes to left ventricle contractility. The first change was repeated three times. The second change, calcium injection at 5 mL, provided a contractility increase of about 20%. […] The average correlation between right ventricle contractility and left ventricle contractility using a Millar (MEMS) sensor on a catheter was very good at 0.91. The average correlation between right ventricle contractility and left ventricle contractility using a fluid-filled lumen of a Swan-Ganz catheter in communication with an external pressure sensor was also very good at 0.87. Accordingly, under certain circumstances such as measurement of an animal (normal, non-HF ovine model) model, if a subject is given a calcium injection, measuring changes to right ventricle contractility with a MEMS sensor or a fluid filled lumen can provide accurate information about changes to left ventricle contractility.

Compound	Contractility % Increase [%]	Contractility % Increase (listed as dobutamine injection)	Contractility % Increase (listed as calcium injection)
CC(CCc1ccc(O)cc1)NCCc1ccc(O)c(O)c1 (stereo not shown) [Dobutamine Injection, dobutamine]	>500	greater than 500%	–
calcium [Calcium Injection]	~20	–	about 20%
